Patent US20100130509A1, “NOVEL ANTIBIOTICS” (Nederlandse Organisatie voor toegepast-natuurwe- …, priority 2007, published 2010)
≈ marks a conversion by molar mass, not a printed value. Read-outs that look alike come from different tables or passages of the source.

Experiments:
Staphylococcus aureus = assay: Antibiotic activity towards Staphylococcus aureus (summary statements); assay type: cell-based; details: statement in words
S. aureus TTC 03.0236 = assay: MIC test (CLSI M7-A6 dilution), S. aureus TTC 03.0236; assay type: cell-based; details: Staphylococcus aureus, TTC03.0236; single strain; TTC is internal collection number
Method: (§1) MIC test were performed according to standard methodology: M7-A6-“Methods for Dilution Antimicrobial Susceptibility Tests for Bacteria That Grow Aerobically”; Approved Standard, Sixth Edition Clinical and Laboratory Standards Institute 2005 (CLSI/formerly NCCLS).

S. epidermis = assay: MIC test (CLSI M7-A6 dilution), S. epidermis; assay type: cell-based; details: single strain
Method: as §1

[1] = tested on: S. aureus strain ATCC 6538; assay: MIC test (CLSI M7-A6 dilution), S. aureus ATCC 6538; assay type: cell-based, Staphylococcus aureus; details: for MIC: Staphylococcus aureus
S. aureus TTC 03.0239 = assay: MIC test (CLSI M7-A6 dilution), S. aureus TTC 03.0239; assay type: cell-based; details: Staphylococcus aureus, TTC03.0239; single strain; TTC is internal collection number
Method: as §1

[2] = ATCC6538, single strain, Table I, read-out: MIC S. aureus ATTC 6538
[3] = ATCC6538, Table II, Example 3, read-out: MIC S. aureus ATCC 6538

| SMILES | MIC [1, 3] [µg/mL] | MIC S. aureus ATCC 6538 ([1]; Table II, Example 3) [µg/mL] | antibiotic activity towards Staphylococcus aureus (Staphylococcus aureus) | efficacy as antimicrobial agents (Staphylococcus aureus) | further results |
| --- | --- | --- | --- | --- | --- |
| O=C(Nc1ccccc1)C(Cl)(Cl)c1nnnn1-c1ccccc1 [NewCo0052, N1-phenyl-2,2-dichloro-2-(1-phenyl-1H-1,2,3,4-tetraazol-5-yl)acetamide] | – | – | most notable | exceptionally good | MIC (S. aureus TTC 03.0236): 1.56 µg/mL (≈ 4.48 µM); MIC (S. epidermis): 0.78 µg/mL (≈ 2.24 µM); MIC [1, 2]: 1.56 µg/mL (≈ 4.48 µM); MIC (S. aureus TTC 03.0239): 1.56 µg/mL (≈ 4.48 µM) |
| COc1ccccc1NC(=O)C(Cl)(Cl)c1nnnn1-c1ccccc1OC [NewCo0053, N1-(2-methoxyphenyl)-2,2-dichloro-2-[1-(2-methoxyphenyl)-1H-1,2,3,4-tetraazol-5-yl]acetamide] | – | – | most notable | exceptionally good | MIC (S. aureus TTC 03.0236): 0.78 µg/mL (≈ 1.91 µM); MIC (S. epidermis): 0.78 µg/mL (≈ 1.91 µM); MIC [1, 2]: 0.78 µg/mL (≈ 1.91 µM); MIC (S. aureus TTC 03.0239): 1.56 µg/mL (≈ 3.82 µM) |
| Cc1ccccc1-n1nnnc1C(Cl)(Cl)C(=O)Nc1ccccc1 [NewCo 0058, 2,2-dichloro-N-phenyl-2-(1-o-tolyl-1H-tetrazol-5-yl)-acetamide] | 0.39 (≈ 1.08 µM) | – | most notable | exceptionally good | – |
| CN[C@H](CC(C)C)C(=O)N[C@H]1C(=O)N[C@@H](CC(N)=O)C(=O)N[C@H]2C(=O)N[C@H]3C(=O)N[C@H](C(=O)N[C@H](C(=O)O)c4cc(O)cc(O)c4-c4cc3ccc4O)[C@H](O)c3ccc(c(Cl)c3)Oc3cc2cc(c3O[C@@H]2O[C@H](CO)[C@@H](O)[C@H](O)[C@H]2O[C@H]2C[C@](C)(N)[C@H](O)[C@H](C)O2)Oc2ccc(cc2Cl)[C@H]1O [Vancomycin, reference compound] | – | – | – | – | MIC ([1]; ATCC6538, read-out: MIC S. aureus ATCC 6538): 0.78 µg/mL (≈ 0.538 µM) |

Further lines, with some results ahead:

| MIC [1, 3] [µg/mL] | MIC S. aureus ATCC 6538 ([1]; Table II, Example 3) [µg/mL] | SMILES | antibiotic activity towards Staphylococcus aureus (Staphylococcus aureus) | efficacy as antimicrobial agents (Staphylococcus aureus) | further results |
| --- | --- | --- | --- | --- | --- |
| 25 (≈ 76.2 µM) | – | Cc1ccccc1-n1nnnc1C(Cl)(Cl)C(=O)NC(C)C [NewCo 0059, 2,2-dichloro-N-isopropyl-2-(1-o-tolyl-1H-tetrazol-5-yl)-acetamide] | – | – | – |
| – | 12.5 (≈ 35.2 µM) | Cc1ccccc1-n1nnnc1C(Cl)(Cl)C(=O)N1CCNCC1 [NewCo 0060, 2,2-dichloro-1-piprazin-1-yl-2-(1-o-tolyl-1H-tetrazol-5-yl)-ethanone] | – | – | – |
| 0.78 (≈ 2.15 µM) | – | Cc1ccccc1-n1nnnc1C(Cl)(Cl)C(=O)Nc1ccncc1 [NewCo 0061, 2,2-dichloro-N-pyridin-4-yl-2-(1-o-tolyl-1H-tetrazol-5-yl)-acetamide] | most notable | exceptionally good | – |
| – | 50 (≈ 135 µM) | Cc1ccccc1-n1nnnc1C(Cl)(Cl)C(=O)NC1CCNCC1 [NewCo 0062, 2,2-dichloro-N-piperidin-4-yl-2-(1-O— tolyl-1H-tetrazol-5-yl)-acetamide] | – | – | – |
| 1.56 (≈ 5.45 µM) | – | Cc1ccccc1-n1nnnc1C(Cl)(Cl)C(N)=O [NewCo 0063, 2,2-dichloro-2-(1-o-tolyl-1H-tetrazol-5-yl)-acetamide] | most notable | exceptionally good | – |
| – | 100 (≈ 318 µM) | Cc1ccccc1-n1nnnc1C(Cl)(Cl)C(=O)N(C)C [NewCo 0064, 2-dichloro-N,N-dimethyl-2-(1-o-tolyl-1H-tetrazol-5-yl)-acetamide] | – | – | – |
